Assay type in all cases: functional, cell-based
A short description of assay [1]: Cytotoxicity against human KB16 cells after 72 hrs. Particulars: KB16, 72 h.
A further assay deals with A549. As to the kind of experiment: Cytotoxicity against human A549 cells after 72 hrs. The following applies: A549, 72 h.
In a further assay the test system is P388. Description: Cytotoxicity against mouse P388 cells after 72 hrs. Particulars: P388, 72 h.
Another assay deals with HT-29. As to the kind of experiment: Cytotoxicity against human HT29 cells after 72 hrs. Particulars: HT-29, 72 h.

Values after ≈ are worked out from the molar mass of the structure shown.

Turning to `CC(=O)O[C@H]1C[C@H]2[C@@H](OC(=O)c3ccccc3)[C@@H]3[C@](O)(CO)[C@@H](OC(C)=O)C[C@H](OC(C)=O)[C@@]3(C)[C@@H](OC(C)=O)[C@H](OC(C)=O)C(=C1C)C2(C)C`, the half-inhibitory concentration (IC50) worked out at 1 µg/mL (≈ 1.4 µM) in assay [1], 4.8 µg/mL (≈ 6.7 µM) with A549, 2.4 µg/mL (≈ 3.35 µM) in the assay with P388 and 1.4 µg/mL (≈ 1.95 µM) with HT-29.

For the compound `CC(=O)O[C@H]1C[C@H]2[C@@H](O)[C@@H]3[C@](O)(COC(=O)c4ccccc4)[C@@H](OC(C)=O)C[C@H](OC(C)=O)[C@@]3(C)[C@@H](OC(C)=O)[C@H](OC(C)=O)C(=C1C)C2(C)C` [TAXUMAIROL A], the IC50 in assay [1] was 0.4 µg/mL (≈ 0.558 µM); in the assay on A549, 1.7 µg/mL (≈ 2.37 µM); in the assay on P388 it was 0.05 µg/mL (≈ 0.0698 µM); in the assay on HT-29, 1 µg/mL (≈ 1.4 µM).

Take `CC(=O)O[C@H]1C[C@@]2(O)[C@@H](OC(C)=O)[C@@H]3[C@@]4(CO4)[C@@H](OC(C)=O)C[C@H](O)[C@@]3(C)[C@@H](O)[C@H](OC(C)=O)C(=C1C)C2(C)C` [TAXUMAIROL B]: the IC50 is 1.4 µg/mL (≈ 2.46 µM) in assay [1], over 50 µg/mL in the assay with A549, over 50 µg/mL with P388 and over 50 µg/mL in the assay on HT-29.
